Assay [1] in a line: SOD activity by the cytochrome c method (xanthine/xanthine oxidase). Particulars: pH 7.8, 25° C., metalloporphyrin concentration. It is filed as biochemical. As to the method: The SOD activity (i.e. O2— extinction activity) of Por-embedding niosome was evaluated according to the cytochrome c method ((1) J. M. Mccord and I. Fridovich, J. Biol. Chem., 244, 6049 (1969) and (2) J. Butler, W. H. Kopenol, E. Margoliash, J. Biol. Chem., 257, 10747 (1982)). A specific procedure was as follows: Five or more Por-embedding niosome solutions (A solutions) with different metalloporphyrin concentrations ranging from 0 to 1,000 μM were prepared. […] The UV-vis was also measured for a solution without addition of Por-embedding niosome (blank) in the same manner.
The ferrocytochrome c formation rates in a solution not containing Por-embedding niosome (vo) and a solution containing Por-embedding niosome (vi) were determined from the relationship between the time and the absorbance at 550 nm in the UV-vis measurement over time. The inhibition coefficient (IC) was calculated according to the following formula to determine the concentration of metalloporphyrin when IC=50% (IC50) from the relationship between the concentration of metalloporphyrin complex and IC. […] The SOD activity of MnT4MPyP and the like was evaluated in the same manner for reference. […]

Assay [2] can be described thus: SOD activity by the stopped flow method (potassium superoxide). In kind it is biochemical. Particulars: HEPES buffer pH 8.1, 36° C. As to the method:
The SOD activity (i.e. ° 2-extinction activity) of Por-embedding niosome was evaluated according to the stopped flow method of Riley et al. (D. P. Riley, W. L. Rivers, and R. H. Weiss, Anal. Biochem., 196, 344 (1991)). A specific procedure was as follows: 60 mM HEPES/HEPES Na buffer solutions (8.1 pH) containing Por-embedding niosome at different concentrations were rapidly mixed with a dimethyl sulfoxide solution of potassium superoxide, which is an O2^−. generation source, at 36° C. to measure over time an attenuation of absorbance at 245 nm due to O2^−. (a decay curve of O2^−. extinction reaction). The relationship of ln (absorbance) and time was determined from the decay curve. The apparent rate constant was calculated from the inclination of the resulting relationship. The rate constant (kcat) of the O2^−. extinction reaction was then determined from the inclination of the relationship of the metalloporphyrin complex concentration and the apparent rate constant.

For assay [3] the following is noted: value disclosed by Fridovich et al., J. Biol. Chem., 273, 24251 (1998); read-out: IC50 (SOD activity); cited from earlier work.
For assay [4] the following is noted: value disclosed by Ohse, Kawakami et al., J. Inorg. Biochem., 85, 201 (2001); cited from earlier work.

Like-named read-outs stand apart in the source and are kept apart here.

What is called IC50 is the concentration that gives 50% inhibition. On to `C[n+]1ccc(-c2c3nc(c(-c4cc[n+](C)cc4)c4ccc([n-]4)c(-c4cc[n+](C)cc4)c4nc(c(-c5cc[n+](C)cc5)c5ccc2[n-]5)C=C4)C=C3)cc1.[Mn+2]` [MnT4MPyP, Manganese[5,10,15,20-tetrakis(4-methylpyridyl)porphyrin]], for which the IC50 in assay [1] was 430 nM; in assay [3], 700 nM. Further, the “kcat (rate constant of the O2−. extinction reaction)” value in assay [2] was 1.4e+07 M⁻¹ s⁻¹; in assay [4], 2.2e+07 M⁻¹ s⁻¹.
Take “manganese[5,10,15,20-tetrakis(2-methylpyridyl)porphyrin] [MnT2MPyP]”: the IC50 in assay [1] is 180 nM. For the same molecule, in assay [2], the “kcat (rate constant of the O2−. extinction reaction)” value was 2.1e+07 M⁻¹ s⁻¹.
